How the values were obtained:
[1] = molecular target: T1, CDK1/cyclin B (Homo sapiens, UniProt P06493); assay: CDK family off-target kinase activity (Eurofins); type: biochemical
T1 construct: purchased Eurofins Pharma Discovery Services UK Ltd
Procedure: (§1) GFH009 inhibition activity against the CDK9/cyclin T1 complex as well as off-target CDK family reactivity were assayed by Eurofins Pharma Discovery Services UK Ltd., (Dundee, UK). Determination of off-target inhibition of other kinases was conducted by DiscoverX LeadHunter Discovery Services (Freemont, CA, USA.) GFH009 reactivity to GPCR family members was assayed by Wuxi AppTech (Shanghai, China).
(§2) The pharmacodynamic and mechanistic foundation for the
(§3) CDK9 inhibitor for the treatment of hematologic malignancies
(§4) Supplementary Table 1: Inhibitory action of GFH009 on other CDK family members
(§5) Various CDK/ Remaining enzymatic activity (%) after
(§6) cognate cyclin pairs tested exposure to GFH009 at a concentration of Selectivity vs. CDK9
(§7) (also on this page, place not known: www.oncotarget.com Oncotarget, Materials Supplementary)
(§8) (1 picture or pasted object on this page, not shown here)

[2] = molecular target: T2, CDK12/cyclin K (Homo sapiens, UniProt Q9NYV4); assay: CDK family off-target kinase activity (Eurofins); type: biochemical
T2 construct: purchased Eurofins Pharma Discovery Services UK Ltd
Procedure: as §1, §2, §3, §4, §5, §6, §7, §8

[3] = molecular target: T3, CDK14/cyclin Y (Homo sapiens, UniProt O94921); assay: CDK family off-target kinase activity (Eurofins); type: biochemical
T3 construct: purchased Eurofins Pharma Discovery Services UK Ltd
T3 sequence (O94921 whole entry): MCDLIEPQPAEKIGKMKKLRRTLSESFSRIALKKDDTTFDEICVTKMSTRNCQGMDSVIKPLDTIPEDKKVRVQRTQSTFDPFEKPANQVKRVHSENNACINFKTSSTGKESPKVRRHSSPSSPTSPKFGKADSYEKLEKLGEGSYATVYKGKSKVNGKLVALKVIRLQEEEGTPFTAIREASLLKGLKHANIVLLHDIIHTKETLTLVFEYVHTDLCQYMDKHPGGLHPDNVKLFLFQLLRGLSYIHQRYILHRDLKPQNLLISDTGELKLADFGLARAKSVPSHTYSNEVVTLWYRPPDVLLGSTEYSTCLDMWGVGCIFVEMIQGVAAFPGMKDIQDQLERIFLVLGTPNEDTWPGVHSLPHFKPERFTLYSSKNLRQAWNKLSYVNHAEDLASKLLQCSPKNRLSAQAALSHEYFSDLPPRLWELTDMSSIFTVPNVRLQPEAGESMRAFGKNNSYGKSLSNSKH
T3 sequence (Q8ND76 whole entry partner): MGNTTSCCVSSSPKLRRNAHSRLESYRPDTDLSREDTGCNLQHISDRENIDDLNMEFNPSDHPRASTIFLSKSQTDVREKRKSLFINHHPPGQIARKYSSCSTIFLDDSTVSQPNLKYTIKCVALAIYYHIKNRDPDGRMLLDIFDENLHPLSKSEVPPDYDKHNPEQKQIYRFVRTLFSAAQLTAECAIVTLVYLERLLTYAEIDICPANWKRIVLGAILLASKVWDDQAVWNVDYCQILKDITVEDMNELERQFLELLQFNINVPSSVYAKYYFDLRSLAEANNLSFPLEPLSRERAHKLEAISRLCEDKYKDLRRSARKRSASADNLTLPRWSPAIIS
Procedure: as §1, §2, §3, §4, §5, §6, §7, §8

[4] = molecular target: T4, CDK16/cyclin Y (Homo sapiens, UniProt Q00536); assay: CDK family off-target kinase activity (Eurofins); type: biochemical
T4 construct: purchased Eurofins Pharma Discovery Services UK Ltd
Procedure: as §1, §2, §3, §4, §5, §6, §7, §8

[5] = molecular target: T5, CDK17/cyclin Y (Homo sapiens, UniProt Q00537); assay: CDK family off-target kinase activity (Eurofins); type: biochemical
T5 construct: purchased Eurofins Pharma Discovery Services UK Ltd
T5 sequence (Q00537 whole entry): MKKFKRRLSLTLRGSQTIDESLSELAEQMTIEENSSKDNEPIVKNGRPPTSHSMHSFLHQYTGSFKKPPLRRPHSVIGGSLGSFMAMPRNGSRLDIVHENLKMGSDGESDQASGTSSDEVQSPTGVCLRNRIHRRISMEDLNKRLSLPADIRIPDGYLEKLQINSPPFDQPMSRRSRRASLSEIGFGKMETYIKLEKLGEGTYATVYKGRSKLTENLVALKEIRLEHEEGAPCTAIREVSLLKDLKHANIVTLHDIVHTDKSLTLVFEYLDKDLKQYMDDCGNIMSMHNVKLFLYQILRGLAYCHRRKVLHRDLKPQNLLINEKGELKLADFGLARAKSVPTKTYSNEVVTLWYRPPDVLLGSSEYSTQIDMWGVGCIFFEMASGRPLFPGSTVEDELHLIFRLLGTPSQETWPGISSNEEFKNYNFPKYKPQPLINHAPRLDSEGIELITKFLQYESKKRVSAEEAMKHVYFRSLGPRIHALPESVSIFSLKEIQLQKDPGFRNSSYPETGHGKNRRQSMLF
T5 sequence (Q8ND76 whole entry partner): as the sequence (Q8ND76 whole entry partner) above
Procedure: as §1, §2, §3, §4, §5, §6, §7, §8

[6] = molecular target: T6, CDK18/cyclin Y (Homo sapiens, UniProt Q07002); assay: CDK family off-target kinase activity (Eurofins); type: biochemical
T6 construct: purchased Eurofins Pharma Discovery Services UK Ltd
T6 sequence (Q07002 whole entry): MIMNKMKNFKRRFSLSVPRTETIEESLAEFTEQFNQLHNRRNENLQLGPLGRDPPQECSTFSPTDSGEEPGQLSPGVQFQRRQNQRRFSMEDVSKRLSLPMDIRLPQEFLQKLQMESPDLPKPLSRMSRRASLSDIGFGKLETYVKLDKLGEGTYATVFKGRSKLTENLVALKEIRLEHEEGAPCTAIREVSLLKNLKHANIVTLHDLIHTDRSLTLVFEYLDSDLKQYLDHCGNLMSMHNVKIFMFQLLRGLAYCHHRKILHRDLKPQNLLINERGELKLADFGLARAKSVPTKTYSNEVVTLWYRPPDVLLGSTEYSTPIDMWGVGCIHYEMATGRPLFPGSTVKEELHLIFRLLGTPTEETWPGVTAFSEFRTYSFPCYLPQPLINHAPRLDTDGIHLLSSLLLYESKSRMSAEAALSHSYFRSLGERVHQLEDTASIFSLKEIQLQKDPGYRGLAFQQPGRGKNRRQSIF
T6 sequence (Q8ND76 whole entry partner): as the sequence (Q8ND76 whole entry partner) above
Procedure: as §1, §2, §3, §4, §5, §6, §7, §8

[7] = molecular target: T7, CDK2/cyclin A (Homo sapiens, UniProt P24941); assay: CDK family off-target kinase activity (Eurofins); type: biochemical
T7 construct: purchased Eurofins Pharma Discovery Services UK Ltd
Procedure: as §1, §2, §3, §4, §5, §6, §7, §8

[8] = molecular target: T8, CDK2/cyclin E (Homo sapiens, UniProt P24941); assay: CDK family off-target kinase activity (Eurofins); type: biochemical
T8 construct: purchased Eurofins Pharma Discovery Services UK Ltd
Procedure: as §1, §2, §3, §4, §5, §6, §7, §8

[9] = molecular target: T9, CDK3/cyclin E (Homo sapiens, UniProt Q00526); assay: CDK family off-target kinase activity (Eurofins); type: biochemical
T9 construct: purchased Eurofins Pharma Discovery Services UK Ltd
Procedure: as §1, §2, §3, §4, §5, §6, §7, §8

[10] = molecular target: T10, CDK4/cyclin D3 (Homo sapiens, UniProt P11802); assay: CDK family off-target kinase activity (Eurofins); type: biochemical
T10 construct: purchased Eurofins Pharma Discovery Services UK Ltd
Procedure: as §1, §2, §3, §4, §5, §6, §7, §8

[11] = molecular target: T11, CDK5/p25 (Homo sapiens, UniProt Q00535); assay: CDK family off-target kinase activity (Eurofins); type: biochemical
T11 construct: purchased Eurofins Pharma Discovery Services UK Ltd
T11 sequence (Q00535 whole entry): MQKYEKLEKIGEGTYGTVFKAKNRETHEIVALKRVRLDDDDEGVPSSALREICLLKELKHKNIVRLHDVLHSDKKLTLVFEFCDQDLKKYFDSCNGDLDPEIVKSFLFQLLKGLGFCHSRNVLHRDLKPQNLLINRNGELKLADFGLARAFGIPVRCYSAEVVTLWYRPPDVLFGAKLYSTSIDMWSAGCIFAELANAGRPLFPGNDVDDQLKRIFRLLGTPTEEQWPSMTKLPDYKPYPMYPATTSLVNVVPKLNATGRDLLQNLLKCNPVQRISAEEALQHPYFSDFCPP
T11 sequence (Q15078 99-307 partner limits assumed): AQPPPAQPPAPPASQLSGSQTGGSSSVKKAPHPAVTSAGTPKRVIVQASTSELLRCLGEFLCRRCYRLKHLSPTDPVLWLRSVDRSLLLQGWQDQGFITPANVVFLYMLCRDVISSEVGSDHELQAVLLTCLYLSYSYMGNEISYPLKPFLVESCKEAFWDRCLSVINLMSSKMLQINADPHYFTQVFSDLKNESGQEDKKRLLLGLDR
Procedure: as §1, §2, §3, §4, §5, §6, §7, §8

[12] = molecular target: T12, CDK5/p35 (Homo sapiens, UniProt Q00535); assay: CDK family off-target kinase activity (Eurofins); type: biochemical
T12 construct: purchased Eurofins Pharma Discovery Services UK Ltd
T12 sequence (Q00535 whole entry): as the sequence (Q00535 whole entry) above
T12 sequence (Q15078 2-307 partner limits assumed): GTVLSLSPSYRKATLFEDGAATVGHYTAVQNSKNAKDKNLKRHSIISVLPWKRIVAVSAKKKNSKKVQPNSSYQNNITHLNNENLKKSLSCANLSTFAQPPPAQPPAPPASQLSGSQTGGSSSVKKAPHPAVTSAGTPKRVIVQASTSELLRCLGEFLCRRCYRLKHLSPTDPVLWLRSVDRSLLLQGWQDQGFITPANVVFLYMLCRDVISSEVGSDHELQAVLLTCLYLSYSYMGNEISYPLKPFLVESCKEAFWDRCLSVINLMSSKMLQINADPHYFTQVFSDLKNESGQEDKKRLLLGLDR
Procedure: as §1, §2, §3, §4, §5, §6, §7, §8

[13] = molecular target: T13, CDK6/cyclin D3 (Homo sapiens, UniProt Q00534); assay: CDK family off-target kinase activity (Eurofins); type: biochemical
T13 construct: purchased Eurofins Pharma Discovery Services UK Ltd
T13 sequence (Q00534 whole entry): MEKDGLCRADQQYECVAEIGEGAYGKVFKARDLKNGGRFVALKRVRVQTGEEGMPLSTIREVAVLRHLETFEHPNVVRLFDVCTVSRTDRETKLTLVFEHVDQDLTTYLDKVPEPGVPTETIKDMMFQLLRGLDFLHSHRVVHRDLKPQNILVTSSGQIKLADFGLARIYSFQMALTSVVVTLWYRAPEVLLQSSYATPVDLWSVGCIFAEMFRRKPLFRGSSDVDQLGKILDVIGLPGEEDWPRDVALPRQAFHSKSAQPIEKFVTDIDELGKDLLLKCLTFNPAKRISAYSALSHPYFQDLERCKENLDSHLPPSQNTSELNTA
T13 sequence (P30281 whole entry partner): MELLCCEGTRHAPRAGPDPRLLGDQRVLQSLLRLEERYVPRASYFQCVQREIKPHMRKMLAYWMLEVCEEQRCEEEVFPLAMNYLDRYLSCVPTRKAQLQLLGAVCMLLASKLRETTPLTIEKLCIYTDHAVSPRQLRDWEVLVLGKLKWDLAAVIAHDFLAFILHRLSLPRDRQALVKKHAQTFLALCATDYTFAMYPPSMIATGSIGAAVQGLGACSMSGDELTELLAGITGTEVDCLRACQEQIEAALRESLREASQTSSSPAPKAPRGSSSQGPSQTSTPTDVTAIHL
Procedure: as §1, §2, §3, §4, §5, §6, §7, §8

[14] = molecular target: T14, CDK7/cyclin H/MAT1 (Homo sapiens, UniProt P50613); assay: CDK family off-target kinase activity (Eurofins); type: biochemical
T14 construct: purchased Eurofins Pharma Discovery Services UK Ltd
T14 sequence (P50613 whole entry): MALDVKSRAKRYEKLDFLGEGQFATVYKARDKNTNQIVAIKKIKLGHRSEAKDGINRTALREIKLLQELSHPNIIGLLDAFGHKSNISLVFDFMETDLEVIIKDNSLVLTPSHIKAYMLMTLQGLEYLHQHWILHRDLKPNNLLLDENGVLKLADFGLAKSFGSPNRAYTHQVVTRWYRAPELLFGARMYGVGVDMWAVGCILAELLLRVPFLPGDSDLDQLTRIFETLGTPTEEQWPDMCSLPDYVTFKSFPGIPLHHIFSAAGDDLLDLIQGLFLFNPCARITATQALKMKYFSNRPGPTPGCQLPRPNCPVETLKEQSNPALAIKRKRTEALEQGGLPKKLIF
T14 sequence (P51946 whole entry partner): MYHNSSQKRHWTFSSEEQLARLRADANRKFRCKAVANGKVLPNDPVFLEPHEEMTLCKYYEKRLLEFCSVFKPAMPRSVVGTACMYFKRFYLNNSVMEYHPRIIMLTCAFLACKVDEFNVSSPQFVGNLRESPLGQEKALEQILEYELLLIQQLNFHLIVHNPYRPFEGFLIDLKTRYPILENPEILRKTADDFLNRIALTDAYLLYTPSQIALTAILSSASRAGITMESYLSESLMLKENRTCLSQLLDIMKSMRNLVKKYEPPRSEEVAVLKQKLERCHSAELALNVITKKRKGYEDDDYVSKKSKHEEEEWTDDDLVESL
T14 sequence (P51948 whole entry partner): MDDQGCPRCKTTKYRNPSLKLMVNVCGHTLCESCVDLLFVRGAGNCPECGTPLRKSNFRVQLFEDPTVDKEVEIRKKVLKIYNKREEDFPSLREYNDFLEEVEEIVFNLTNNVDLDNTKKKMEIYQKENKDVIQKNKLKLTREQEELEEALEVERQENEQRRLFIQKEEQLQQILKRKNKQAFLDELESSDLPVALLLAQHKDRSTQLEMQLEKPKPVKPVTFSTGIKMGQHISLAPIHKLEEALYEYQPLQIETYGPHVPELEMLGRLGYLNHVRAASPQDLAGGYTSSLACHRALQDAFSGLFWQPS
Procedure: as §1, §2, §3, §4, §5, §6, §7, §8

[15] = molecular target: T15, Cdc7/cyclinB1 (Homo sapiens, UniProt O00311); assay: CDK family off-target kinase activity (Eurofins); type: biochemical
T15 construct: purchased Eurofins Pharma Discovery Services UK Ltd
Procedure: as §1, §2, §3, §4, §5, §6, §7, §8

[16] = system: MV-4-11; assay: Apoptosis by Annexin V/PI double staining, flow cytometry; type: cell-based, human; conditions: 6-hour treatment, DMSO control 6.4 ± 0.1%
Procedure: Figure 5 Apoptotic activity of GFH009 in human malignancy cell lines. Four cell lines, MV-4-11 (A), HL-60 (B), U937 (C), and NCI-H929 (D) were treated with different concentrations of GFH009 or enitociclib for 6 hours and harvested for cell apoptosis analysis using Annexin V/PI double staining. Data are presented as mean (SD) from multiple independent experiments. ^* P < 0.05, ^*** P < 0.001, ^**** P < 0.0001, one-way ANOVA with Dunnett’s test analysis compared to DMSO control group.
Initiation of apoptosis by GFH009 was assayed in multiple human cell lines, including MV-4-11, HL-60, U937, and NCI-H929. Cells were incubated at 37°C and 5% CO2 for 6 hours at final concentrations of 1 μM, 0.3 μM, 0.1 μM, 0.03 μM, and 0.01 μM for both GFH009 and Enitociclib. After drug treatment, cells were collected, and apoptosis determined using Annexin V-FITC and propidium iodide (PI) staining (Becton, Dickinson and Co, Franklin Lakes, NJ, USA). Samples were examined using an Attune NxT Flow Cytometer (Thermo Fisher Scientific, Waltham, MA, USA) within 1 hour of staining and analyzed using FlowJo vX.0.7 software. The apoptotic rate between groups was statistically compared by means of one-way ANOVA (Dunnett’s multiple comparisons test). Differences from the dimethyl sulfoxide (DMSO)-only treated control group was considered statistically significant at a P value of < 0.05. All plotting and statistical analysis were conducted using the Prism GraphPad 6 for Windows v6.01.

## COC[C@@H](C)NC1CCC(Nc2cc(-c3csc(NCC4(C#N)CCOCC4)n3)c(Cl)cn2)CC1 (some centres unmarked) [GFH009]
[1]
  Selectivity vs. CDK9: > 1000
[1]; 1 µM
  Remaining enzymatic activity (%) after exposure to GFH009: 97%
[1]; 10 µM
  Remaining enzymatic activity (%) after exposure to GFH009: 50%
[2]
  Selectivity vs. CDK9: > 1000
[2]; 1 µM
  Remaining enzymatic activity (%) after exposure to GFH009: 94%
[2]; 10 µM
  Remaining enzymatic activity (%) after exposure to GFH009: 86%
[3]
  Selectivity vs. CDK9: > 100
[3]; 1 µM
  Remaining enzymatic activity (%) after exposure to GFH009: 70%
[3]; 10 µM
  Remaining enzymatic activity (%) after exposure to GFH009: 39%
[4]
  Selectivity vs. CDK9: < 100
[4]; 1 µM
  Remaining enzymatic activity (%) after exposure to GFH009: 23%
[4]; 10 µM
  Remaining enzymatic activity (%) after exposure to GFH009: 5%
[5]
  Selectivity vs. CDK9: < 100
[5]; 1 µM
  Remaining enzymatic activity (%) after exposure to GFH009: 30%
[5]; 10 µM
  Remaining enzymatic activity (%) after exposure to GFH009: 7%
[6]
  Selectivity vs. CDK9: > 100
[6]; 1 µM
  Remaining enzymatic activity (%) after exposure to GFH009: 53%
[6]; 10 µM
  Remaining enzymatic activity (%) after exposure to GFH009: 12%
[7]
  Selectivity vs. CDK9: > 1000
[7]; 1 µM
  Remaining enzymatic activity (%) after exposure to GFH009: 80%
[7]; 10 µM
  Remaining enzymatic activity (%) after exposure to GFH009: 51%
[8]
  Selectivity vs. CDK9: > 100
[8]; 1 µM
  Remaining enzymatic activity (%) after exposure to GFH009: 63%
[8]; 10 µM
  Remaining enzymatic activity (%) after exposure to GFH009: 27%
[9]
  Selectivity vs. CDK9: > 100
[9]; 1 µM
  Remaining enzymatic activity (%) after exposure to GFH009: 74%
[9]; 10 µM
  Remaining enzymatic activity (%) after exposure to GFH009: 39%
[10]
  Selectivity vs. CDK9: > 100
[10]; 1 µM
  Remaining enzymatic activity (%) after exposure to GFH009: 70%
[10]; 10 µM
  Remaining enzymatic activity (%) after exposure to GFH009: 41%
[11]
  Selectivity vs. CDK9: > 100
[11]; 1 µM
  Remaining enzymatic activity (%) after exposure to GFH009: 79%
[11]; 10 µM
  Remaining enzymatic activity (%) after exposure to GFH009: 43%
[12]
  Selectivity vs. CDK9: > 100
[12]; 1 µM
  Remaining enzymatic activity (%) after exposure to GFH009: 66%
[12]; 10 µM
  Remaining enzymatic activity (%) after exposure to GFH009: 43%
[13]
  Selectivity vs. CDK9: > 1000
[13]; 1 µM
  Remaining enzymatic activity (%) after exposure to GFH009: 85%
[13]; 10 µM
  Remaining enzymatic activity (%) after exposure to GFH009: 58%
[14]
  Selectivity vs. CDK9: > 100
[14]; 1 µM
  Remaining enzymatic activity (%) after exposure to GFH009: 67%
[14]; 10 µM
  Remaining enzymatic activity (%) after exposure to GFH009: 19%
[15]
  Selectivity vs. CDK9: > 100
[15]; 1 µM
  Remaining enzymatic activity (%) after exposure to GFH009: 75%
[15]; 10 µM
  Remaining enzymatic activity (%) after exposure to GFH009: 47%
[16]; 0.01 μM
  Apoptosis rate: 6.3 ± 0.1%
[16]; 0.03 μM
  Apoptosis rate: 7.4 ± 0.3%
[16]; 0.1 μM
  Apoptosis rate: 38.1 ± 0.1%
[16]; 0.3 μM
  Apoptosis rate: 67.4 ± 1.0%
[16]; 1 μM
  Apoptosis rate: 61.2 ± 0.3%

From paper PMC10732257 (Oncotarget, 2023)
